Test results as given in patent publication US20220089540A1 (Board of Trustees of Michigan State University, priority 2019, published 2022).
Where “and” joins values, the source holds several entries; their conditions need not be identical. Equal entries are not always repeated.

Experiments:
human RXRa = target: T1, human RXRa (Homo sapiens, UniProt P19793); assay: RXR activation luciferase reporter assay; type: cell-based; conditions: for EC50: Table 6, read-out: RXRα activation (EC50); for RXR assay: luciferase, Control 0, higher numbers indicate higher potency
T1 sequence (P19793 1-462): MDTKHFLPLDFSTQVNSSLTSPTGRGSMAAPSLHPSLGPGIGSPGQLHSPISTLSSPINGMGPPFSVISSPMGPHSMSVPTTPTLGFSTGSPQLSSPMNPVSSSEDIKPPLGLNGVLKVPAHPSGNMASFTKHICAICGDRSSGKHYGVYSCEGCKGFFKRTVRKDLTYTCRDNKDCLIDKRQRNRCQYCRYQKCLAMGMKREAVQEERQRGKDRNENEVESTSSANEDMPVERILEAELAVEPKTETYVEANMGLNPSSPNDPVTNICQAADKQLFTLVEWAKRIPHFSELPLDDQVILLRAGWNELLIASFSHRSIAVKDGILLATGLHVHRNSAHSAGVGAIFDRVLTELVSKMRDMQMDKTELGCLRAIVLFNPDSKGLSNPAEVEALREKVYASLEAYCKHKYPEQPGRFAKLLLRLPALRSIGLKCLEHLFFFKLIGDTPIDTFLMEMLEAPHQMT
Excerpt: Rexinoids are agonists for the retinoid X receptors (RXRs). In this assay, the human RXRa promoter is functionally linked to a luciferase reporter gene. Changes in luciferase expression served as a sensitive surrogate measure of RXR activity. Higher numbers indicate higher potency.

[1] = Triglycerides in rodent models; type: in vivo
[2] = tested on: inducible nitric oxide synthase (iNOS); assay: iNOS suppression / NO assay in LPS-stimulated macrophages or RAW264.7 cells (Griess reaction); type: cell-based, mouse; conditions: for activity at 0.1 µM / activity at 0.125 µM / activity at 0.5 µM / activity at 0.3 µM: Mus musculus; for activity at 0.1 µM / activity at 0.3 µM: RAW264.7, 24 h, percent of the LPS-stimulated control, lower is better, Table 6; for activity at 0.125 µM / activity at 0.5 µM: RAW264.7, Control 100, lower numbers indicate higher efficacy, read-out: NO Assay; for activity at 0.125 µM: 125 nM; for activity at 0.5 µM: 500 nM; for activity at 0.3 µM: at 300 nM, read-out: iNOS suppression
Description: Macrophages or RAW264.7 like-cells were treated with various concentrations of rexinoids and stimulated with lipopolysaccaride (LPS) to activate inducible nitric oxide synthase (iNOS) to produce nitric oxide. This in vitro iNOS assay was rapid, reproducible, quantitative and predictive. Nitric oxide is implicated in the apoptosis of cancer cells via regulation of RXRs. There is a tight correlation between the % reduction of iNOS and efficacy in preclinical lung cancer models. Lower numbers indicate higher efficacy.
RAW264.7 cells were incubated with 300 nM rexinoids and stimulated with 1-2 ng/ml lipopolysaccaride (LPS) for 24 hours to activate inducible nitric oxide synthase (iNOS) to produce nitric oxide. Nitric oxide released into the media was measured by the Griess reaction.
Also, for Table 6, the iNOS suppression is the percent of the LPS-stimulated control where the compounds were measured at 100 nM or 300 nM.
Macrophages or RAW264.7 cells were treated with various concentrations of rexinoids listed in Table 7 and stimulated with lipopolysaccaride (LPS) to activate inducible nitric oxide synthase (iNOS) to produce nitric oxide. Nitric oxide (NO) is implicated in the apoptosis of cancer cells via regulation of RXRs. There is a tight correlation between the % reduction of iNOS and efficacy in preclinical lung cancer models. The in vitro iNOS assay is rapid, reproducible, quantitative and predictive, as NO production is measured in culture medium using the Griess reaction. Values are either presented as % inhibition or IC50 values.

SREBP = SREBP induction in human liver (HepG2) cells, RT-PCR; type: cell-based; design: key to SREBP: fold induction vs DMSO control; conditions: for SREBP activation: fold induction compared to DMSO, several values per cell, Table 6; for SREBP: 300 nM, Control 1.00, lower numbers indicate better safety, Table 2
Description: The SREBP transcription factor is involved in triglyceride synthesis, and its activation correlates with increased triglycerides in vivo. […] Lower numbers indicate better safety. […] Lower numbers indicate better safety. Also, for Table 6, SREBP activation was measured as fold induction compared to DMSO, where a lower value indicates the compound is an improvement over a control.

Lung Cancer Model = assay: Lung cancer model rank order; type: in vivo
PD-L1 = PD-L1 induction in macrophages or RAW264.7 cells with cancer cell conditioned media (flow cytometry); type: cell-based, mouse; conditions: for PD-L1: Table 2, Control 39.8, higher numbers indicate better upregulation; for PD-L1 Levels: Table 4, Control 43.3
Description: RAW 264.7 mouse macrophage-like (ATCC) and E18-14C-27 (Wu et al., Cancer Res. 62, 6376-6380 (2002)) cells were cultured in DMEM supplemented with 10% fetal bovine serum (FBS). RAW 264.7 cells were cultured at 50000/well in a 6 well plate for 24 hours to determine PD-L1 levels. E18-14C-27 cells were cultured for 72 hours in the presence of LG268 for protein levels. Conditioned media was collected from E18-14C-27 at 60-70% confluence for 24 hours; media was then collected and centrifuged at 900 rpm for 5 minutes to eliminate any cell debris.
For PD-L1 staining, RAW 264.7 cells were plated at 25000 cells/ml in 6 well plates for 24 hours before adding conditioned media from E18-14C-27 and LG268. RAW 264.7 cells were cultured for additional 24 hours with E18-14C-27 conditioned media and LG268. […] THP-1 cells were stained and analyzed for the levels of PD-L1 following the same protocol.
Inhibitory receptors on lymphocytes such as PD-1 (programmed cell death protein 1) are important immune checkpoints that protect against autoimmunity as the interaction between PD-L1 (ligand) and the PD-1 receptor expressed on immune cells suppresses T cell activity. Immuno-oncology is revolutionizing cancer treatment, and enormous research efforts are ongoing to identify drugs that upregulate PD-L1 so that they can be combined with checkpoint inhibitors to boost efficacy. Macrophages or RAW264.7 cells are treated with conditioned media from cancer cells and rexinoids, and PD-L1 expression determined by flow cytometry. Higher numbers indicate better upregulation of PD-LI.
Using methods described herein, macrophages or RAW264.7 cells were treated with selected rexinoids and with conditioned media from cancer cells. Structures of the rexinoids are shown below.
PD-L1 expression was determined by flow cytometry.

RAR receptor = conditions: cited from earlier work
[3] = tested on: mammary gland tumors of MMTV-Neu mice; assay: MMTV-Neu mouse model of HER2 positive breast cancer, rexinoid in diet; conditions: 100 mg/kg diet, LG268 5 days
Description: Tumors or mammary glands were homogenized in EBC buffer (1M Tris pH 8, 5M NaCl) with the same protease inhibitors and 10% NP-40 and incubated on ice for 30 min. Protein concentrations were determined by the BCA assay (Sigma-Aldrich). Proteins were resolved by SDS-PAGE, transferred to a nitrocellulose membrane and analyzed with the following antibodies: vinculin, p-STAT1, p-STAT3, p-STAT5 and mouse and rabbit secondary antibodies (Cell Signaling); PD-1, CD206 (Abcam); PD-L1 (R&D). ImageJ was used to quantify the immunoblots, and results were plotted and statistically analyzed using Prism 6. All images shown are representative of 3 independent experiments.
One third of the tumor, mammary gland and spleen removed from MMTV-neu or MMTV-PyMT mice were minced separately and incubated in digestion media consisting of collagenase (300 U/ml, Sigma), dispase (1 U/ml, Worthington), and DNAse (2 U/ml, Calbiochem) for 30 minutes at 37° C. with stirring. Cells were then passed through a 40 μm cell strainer (BD Falcon), and red blood cells eliminated with lysis solution. […] Propidium iodide staining was used to exclude dead cells.
One third of the tumor, spleen and one mammary was removed from MMTV-neu and PyMT mice and fixed in 10% phosphate-buffered formalin for 48 hours, embedded in paraffin blocks, and sectioned (5-6 μm). Hydrogen peroxide was used to quench endogenous peroxidase activity. Sections were immunostained with antibodies raised against CD206 (1:200, Abcam), Gr1 (1:40, BM8, R&D), CD8 (1:40, Biolegend), FOXP3 (1:50, EBiosciences), PD-1 (1:100, Abcam), PD-L1 (1:50, Abcam), cleaved caspase 3 (Cell Signaling) and visualized with biotinylated anti-rabbit or anti-rat secondary antibodies (Cell Signaling or Vector Labs). Signal was detected using a DAB substrate (Cell Signaling) following the manufacturer's recommendations. Sections were counterstained with hematoxylin (Vector Labs).
Both rexinoid treatments were 100 mg/kg of diet, which is equivalent to 25 mg/kg of body weight (FIG. 1B).

LogD at pH 7.4 = type: physicochemical; conditions: pH 7.4 buffer
Description: Note that for Table 6, Log D is the distribution constant, which is descriptor of the lipophilicity of a molecule. This was determined using an aqueous phase that was adjusted to pH 7.4 using a buffer.

[4] = Toxicity in A/J mice with lung tumors fed rexinoids plus carboplatin and paclitaxel; type: in vivo; conditions: 100 mg/kg diet, 7 weeks
Description: A/J mice with lung tumors (detected by ultrasound) were fed rexinoids in their diets (at 100 mg/kg diet) and injected twice every other week with carboplatin and paclitaxel.

[5] = bexarotene 10 days, western blot

Structure (SMILES) | EC50 (human RXRa) | Triglyccerides (Rodent Models) [1] | activity at 0.1 µM ([2]; at 100 nM) | SREBP activation (SREBP) | Lung Cancer Model Rank Order (Lung Cancer Model) | activity at 0.3 µM [2] | logD (LogD at pH 7.4) | further results
C=C(c1ccc(C(=O)O)cc1)c1cc2c(cc1C)C(C)(C)CCC2(C)C [Bexarotene, bexarotene] |  | Elevated | 30 to 35% | 2.7 fold induction and 2.9 fold induction and 1.95 fold induction | 5 |  |  | PD-L1 (PD-L1; 100 nM): 58.5; PD-L1 Levels (PD-L1; 100 nM): 51.2; PD-L1 Levels (PD-L1; 1000 nM): 64; PD-L1 levels in RAW 264.7 cells with E18-14C-27C conditioned media (PD-L1; 24 hours): no changes; activity at 0.125 µM [2]: 78%; activity at 0.5 µM [2]: 32.4%; iNOS ([2]; at 100 nM, comparators of Table 3): 22-40% at 100 nM; SREBP (SREBP): 2.13; binding to the RAR receptor (RAR receptor): limited RAR binding; PD-L1 expression in tumors vs control ([3]; CW-V-125 10 days, western blot and/or immunohistochemistry): did not significantly induce; myeloid derived suppressor cells (CD45+, CD11b+, Gr1+) in tumors ([3]; bexarotene 10 days, control 1.9%): did not alter; mammary tumor size (tumor weight as percentage of total body weight) ([3]; bexarotene 10 days, control diet 3.2%): did not reduce; cleaved caspase 3 in tumors ([3]; bexarotene 10 days, immunohistochemistry): did not increase; reduction of CD206 expression in tumor lysates [3, 5]: did not induce a change; reduction of p-STAT1 expression in whole tumor lysates [3, 5]: no changes
CCN(c1ccc(C(=O)O)cc1)c1cc(C(C)C)c(OCC(C)C)cc1C [drawing 120] |  |  |  | 1.3 fold induction |  | 86% | 3.8 | 
Cc1cc2c(cc1C1(c3ccc(C(=O)O)cn3)CC1)C(C)(C)CCC2(C)C [drawing 95, reference compound] |  | Elevated | 15 to 20% | 3.9 fold induction and 3.1 fold induction and 3.2 fold induction | 1 |  |  | 
CCN(c1ccc(C(=O)O)cc1)c1cc(C(C)(C)C)c(OC)c(C(C)(C)C)c1 [drawing 121] |  |  |  | 1.45 fold induction |  | 74% | 3.8 | 
C=C(c1ccc(C(=O)O)cc1)c1cc(C(C)C)c(OCC(C)C)cc1C [drawing 111] |  |  |  | 1.2 fold induction |  | 40% | 3.5 | 
CCCN(c1cc(C(C)(C)C)cc(C(C)(C)C)c1)c1ccc(C(=O)O)cn1 [drawing 117] |  |  | 22% | 1.95 fold induction and 2.9 fold induction |  | 13% | 3.4 | 
CCN(c1cc(C(F)(F)F)cc(C(F)(F)F)c1)c1ccc(C(=O)O)cn1 [drawing 119] |  |  | 24% | 0.95 fold induction and 1.2 fold induction |  | 15% | 1.5 | 
Cc1cc2c(cc1-n1c(C(F)(F)F)nc3cc(C(=O)O)ccc31)C(C)(C)CCC2(C)C [reference compound] | 0.001 to 0.025 µM | No elevation (mice) |  |  |  |  |  | 
CC(C)CN(c1cc(C(C)(C)C)cc(C(C)(C)C)c1)c1ccc(C(=O)O)cn1 [Compound 18, 6-[(3,5-di-tert-butylphenyl)(2-methylpropyl)amino]pyridine-3-carboxylic Acid] |  |  |  |  |  |  |  | PD-L1 (PD-L1; 100 nM): 58.5; activity at 0.125 µM [2]: 52%; activity at 0.5 µM [2]: 11.5%; RXR assay (human RXRa; 100 nM): 12881; RXR assay (human RXRa; 2500 nM): 35605; SREBP (SREBP): 1.52; toxicity findings (liver, triglycerides, cholesterol, fur) [4]: normal coats; toxicity findings (liver, triglycerides, cholesterol, fur) ([4]; listed as MSU-42011): less toxicity than LG100268
CCN(c1cc(C(C)(C)C)cc(C(C)(C)C)c1)c1ccc(C(=O)O)cn1 [drawing 105] |  |  |  | 1.6 fold induction and 2.85 fold induction and 3.1 fold induction |  | 30% | 2.9 | 
C/C(=C/C=C/C(C)=C/C(=O)O)c1cc(C(C)(C)C)cc(C(C)(C)C)c1OCC(F)F [drawing 96] |  | No Elevation | 30 to 35% |  | 4 |  |  | 
CCN(c1ccc(C(=O)O)cc1)c1cc(C(C)(C)C)cc(C(C)(C)C)c1 [drawing 104] |  |  |  | 1.8 fold induction and 2.5 fold induction |  | 43% | 4 | 

Now from value to molecule, other results behind:

EC50 (human RXRa) | Triglyccerides (Rodent Models) [1] | Structure (SMILES) | activity at 0.1 µM ([2]; at 100 nM) | SREBP activation (SREBP) | Lung Cancer Model Rank Order (Lung Cancer Model) | activity at 0.3 µM [2] | logD (LogD at pH 7.4) | further results
0.001 to 0.025 µM | Elevated (mice) | CCN(c1ccc2c(c1)C(C)(C)CCC2(C)C)c1ccc(C(=O)O)cn1 [reference compound] |  |  |  |  |  | 
0.025 to 0.05 µM | Modest Elevation | Cc1cc2c(cc1C1(c3ncc(C(=O)O)cn3)CC1)C(C)(C)CCC2(C)C [drawing 98, reference compound] | ~25% | ~1.25 fold induction | 3 |  |  | 
0.05 to 0.2 µM | Modest elevation in female rats | CCN(c1ccc(OCC(C)C)c(C(C)C)c1)c1ccc(C(=O)O)cn1 [reference compound] |  |  |  |  |  | 
0.001 to 0.025 µM | Elevated | CC(/C=C/[C@@H]1C[C@]1(C)c1cc2c(cc1C)C(C)(C)CCC2(C)C)=C\C(=O)O [reference compound] | 15 to 20% | ~3.6 fold induction | 2 |  |  | 
